{"source": "patent US20220162169A1", "about": "“6-OXO-1,6-DIHYDROPYRIDAZINE PRODRUG DERIVATIVE, PREPARATION METHOD THEREFOR, AND APPLICATION THEREOF IN MEDICINE” (JIANGSU HENGRUI MEDICINE CO., LTD., priority 2019, published 2022)", "key": {"[1]": {"assay": "Pharmacokinetics assay in SD rats after intragastric administration, plasma LC/MS/MS", "assay_type": "in vivo", "settings": "for Detection of the administered prodrug compound itself in rat plasma: after intragastric administration, LC/MS/MS; for In vivo conversion of the prodrug into its metabolite: intragastric administration", "description": "Test Example 2. Pharmacokinetics Assay of the Compounds of the Present Disclosure in Rats\nSD rats were used as test animals. The drug concentration in plasma at different time points was determined by LC/MS/MS method after oral administration of the compounds of Example 2, Example 6 and Example 7 to SD rats. The pharmacokinetic behavior of the compounds of the present disclosure was studied and evaluated in SD rats.\nForty SD rats (half male and half female, equally divided into ten groups) were purchased from Shanghai Jiesijie Laboratory Animal Co., LTD. (Certificate No.: SCXK(Shanghai) 2013-0006).\nAn appropriate amount of the compound of Example 2 was weighed, followed by the addition of 5% of DMSO, 5% of tween 80 and 90% of normal saline successively to obtain a colorless, clear and transparent solution.\nAn appropriate amount of the compound of Example 2 was weighed, followed by the addition of 0.5% sodium carboxymethyl cellulose (containing 0.5% tween 80) to obtain a white homogeneous suspension.\nAn appropriate amount of the compound of Example 6 was weighed, and added to 200 mM (5% PVPK30+5% TPGS) Na2HPO4 solution (pH=9) to obtain a homogeneous suspension.\nAn appropriate amount of the compound of Example 7 was weighed, and added to 200 mM (5% PVPK30+5% TPGS) Na2HPO4 solution (pH=9) to obtain a homogeneous suspension.\nAfter an overnight fast, the SD rats were intragastrically administered the test compounds. Regarding to the compound of Example 2 (formulation: 5% of DMSO, 5% of tween 80 and 90% of normal saline), the administration dose was 2 mg/kg, the administration volume was 10 mL/kg, and the administration concentration was 0.2 mg/mL. Regarding to the compound of Example 2 (formulation: 0.5% sodium carboxymethyl cellulose (containing 0.5% tween 80)), the administration dose was 10, 30, 100 mg/kg, the administration volume was 10 mL/kg, and the administration concentration was 1, 3, 10 mg/mL. Regarding to the compound of Example 6, the administration dose was 100, 300, 900 mg/kg, the administration volume was 10 mL/kg, and the administration concentration was 10, 30, 90 mg/mL. Regarding to the compound of Example 7, the administration dose was 10, 30, 100 mg/kg, the administration volume was 10 mL/kg, and the administration concentration was 1, 3, 10 mg/mL.\nAfter an overnight fast, the SD rats were intragastrically administered the test compounds. 0.2 ml of blood was taken from the orbit before the administration and at 0.5, 1.0, 2.0, 4.0, 6.0, 8.0, 11.0 and 24.0 hours after the administration. The samples were stored in heparinized tubes, and centrifuged for 10 minutes at 3500 rpm to separate the blood plasma. The plasma samples were stored at −20° C. The SD rats were fed 2 hours after the administration.\nThe content of the test compound in the plasma of SD rats after administration of the test compound at different concentrations was determined: 25 μL of SD rat plasma at each time point after the administration was taken, followed by the addition of 50 μL of the internal standard camptothecin solution (100 ng/mL) and 200 μL of acetonitrile. The resulting solution was vortex-mixed for 5 minutes, and centrifuged for 10 minutes (3700 rpm). 3.0 μL of the supernatant was taken from the plasma samples of the compound of Example 2 (the group at the administration dose of 2 mg/kg) for LC/MS/MS analysis. 2.0 μL of the supernatant was taken from the plasma samples of the compound of Example 2 (the group at the administration dose of 10, 30, or 100 mg/kg) for LC/MS/MS analysis. 0.2 μL of the supernatant was taken from the plasma samples of the compound of Example 6 for LC/MS/MS analysis. 1 μL of the supernatant was taken from the plasma samples of the compound of Example 7 for LC/MS/MS analysis. […]"}, "NaV1.8 ion channel": {"target": "T1, NaV1.8 ion channel (Homo sapiens, UniProt Q9Y5Y9)", "T1 construct": "expressed in transfected cells", "T1 sequence (Q9Y5Y9 whole entry)": "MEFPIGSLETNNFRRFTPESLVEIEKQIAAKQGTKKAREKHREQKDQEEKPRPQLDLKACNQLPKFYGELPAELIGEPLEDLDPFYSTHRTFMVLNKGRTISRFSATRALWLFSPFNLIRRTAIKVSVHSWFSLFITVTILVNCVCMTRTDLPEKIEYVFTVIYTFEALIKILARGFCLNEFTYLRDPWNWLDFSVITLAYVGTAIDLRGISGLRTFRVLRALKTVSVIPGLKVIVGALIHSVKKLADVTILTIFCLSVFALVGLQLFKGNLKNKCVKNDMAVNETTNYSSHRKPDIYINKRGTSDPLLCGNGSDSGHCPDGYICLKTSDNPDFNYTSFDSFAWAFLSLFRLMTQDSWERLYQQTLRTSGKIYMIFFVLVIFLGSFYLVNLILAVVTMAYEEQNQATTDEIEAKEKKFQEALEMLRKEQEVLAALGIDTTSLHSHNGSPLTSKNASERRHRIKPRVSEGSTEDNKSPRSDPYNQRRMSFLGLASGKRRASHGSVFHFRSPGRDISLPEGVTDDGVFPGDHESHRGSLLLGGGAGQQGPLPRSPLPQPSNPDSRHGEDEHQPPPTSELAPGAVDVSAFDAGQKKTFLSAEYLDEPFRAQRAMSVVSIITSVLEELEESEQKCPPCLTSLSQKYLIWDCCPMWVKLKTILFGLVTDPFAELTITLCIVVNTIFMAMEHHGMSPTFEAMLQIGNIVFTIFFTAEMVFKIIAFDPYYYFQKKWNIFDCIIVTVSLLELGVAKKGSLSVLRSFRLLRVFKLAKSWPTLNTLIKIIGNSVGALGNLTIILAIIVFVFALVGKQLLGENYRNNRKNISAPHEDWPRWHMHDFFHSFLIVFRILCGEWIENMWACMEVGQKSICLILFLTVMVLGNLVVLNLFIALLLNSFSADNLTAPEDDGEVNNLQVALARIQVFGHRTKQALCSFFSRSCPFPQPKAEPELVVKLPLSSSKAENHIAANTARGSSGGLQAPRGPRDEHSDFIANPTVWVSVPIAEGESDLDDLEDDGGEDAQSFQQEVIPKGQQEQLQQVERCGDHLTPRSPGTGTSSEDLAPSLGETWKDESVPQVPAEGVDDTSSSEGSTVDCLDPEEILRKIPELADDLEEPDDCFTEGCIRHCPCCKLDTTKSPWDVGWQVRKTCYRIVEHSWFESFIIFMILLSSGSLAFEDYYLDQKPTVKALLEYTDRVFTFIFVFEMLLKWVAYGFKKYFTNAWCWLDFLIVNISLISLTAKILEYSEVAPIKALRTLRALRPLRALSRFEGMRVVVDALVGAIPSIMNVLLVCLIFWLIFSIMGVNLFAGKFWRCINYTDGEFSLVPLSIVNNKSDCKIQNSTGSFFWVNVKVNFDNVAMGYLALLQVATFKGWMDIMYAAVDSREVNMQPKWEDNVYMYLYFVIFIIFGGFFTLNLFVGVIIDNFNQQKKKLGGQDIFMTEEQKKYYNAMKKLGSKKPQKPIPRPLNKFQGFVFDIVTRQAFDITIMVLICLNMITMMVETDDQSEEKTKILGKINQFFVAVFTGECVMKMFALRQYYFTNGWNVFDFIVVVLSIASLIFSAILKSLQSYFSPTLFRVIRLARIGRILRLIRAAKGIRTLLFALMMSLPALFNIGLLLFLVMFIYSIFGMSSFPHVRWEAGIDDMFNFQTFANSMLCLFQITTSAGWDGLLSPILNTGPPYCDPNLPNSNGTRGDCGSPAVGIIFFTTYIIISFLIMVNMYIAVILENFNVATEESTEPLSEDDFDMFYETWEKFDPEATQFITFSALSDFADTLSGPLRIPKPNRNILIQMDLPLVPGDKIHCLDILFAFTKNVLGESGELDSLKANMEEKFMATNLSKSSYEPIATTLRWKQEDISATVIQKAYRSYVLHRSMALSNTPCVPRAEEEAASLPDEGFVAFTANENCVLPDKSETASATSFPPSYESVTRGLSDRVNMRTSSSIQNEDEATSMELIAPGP", "assay": "Manual patch clamp, inhibitory activity on NaV1.8 stably expressed on HEK293 cells", "assay_type": "cell-based", "settings": "HEK293 cells stably expressing NaV1.8, manual patch clamp, resting protocol (clamped at -80 mV, depolarized to 10 mV), 1 μM TTX; read-out: IC50 on inhibiting the Nav1.8 channel activity", "excerpt": "Test Example 3. Determination of the Inhibitory Activity of the Compounds of the Present Disclosure on NaV1.8\nThe purpose of the experiment is to investigate the effect of the compounds on NaV1.8 ion channel in an in vitro experiment, wherein the NaV1.8 ion channel is stably expressed on HEK293 cells. After the NaV1.8 current becomes stable, the NaV1.8 currents before and after the administration of the compound are compared so as to obtain the effect of the compound on the NaV1.8 ion channel.\nExcept for NaOH and KOH used for acid titration and base titration, all the compounds used for formulating the extracellular fluid and intracellular fluid were purchased from Sigma (St. Louis, Mo.). Extracellular fluid (mM): NaCl, 137; KCl, 4; CaCl2, 1.8; MgCl2, 1; HEPES, 10; glucose, 10; pH 7.4 (NaOH titration). Intracellular fluid (mM): aspartic acid, 140; MgCl2, 2; EGTA, 11; HEPES, 10; pH 7.2 (CsOH titration). All solutions of test compound and control compound contained 1 μM TTX.\nThe test compound was dissolved in dimethyl sulfoxide (DMSO) at a stock concentration of 9 mM. The stock solution of the test compound was dissolved in the extracellular fluid on the day of the test and formulated into the required concentration.\n1) The compound was formulated into solutions with specified concentrations, the solutions were added to the pipelines respectively in order from low to high concentration, and the pipelines were marked.\n2) The cell was transferred to the perfusion tank. A positive pressure was applied to the electrode. The tip of the electrode touched the cell. The three-way valve of the air extracting device was adjusted to a three-way state. […]\nThe cell was clamped at −80 mV. […] The maximum current caused by the square wave was measured. […] After the response became stable, the blocking intensity was calculated. […]\nThe inhibitory activity of the compounds of the present disclosure on NaV1.8 was determined by the above test, and the resulting IC50 values are shown in Table 3."}, "[2]": {"assay": "Solubility in PBS solution (pH 7.4) at room temperature", "assay_type": "physicochemical", "settings": "for solubility at 24 h: PBS solution (pH 7.4), aqueous buffer, kinetic from dmso stock, PBS pH 7.4, room temperature, 24 hours shaking, 1% DMSO, average of two measurements, read-out: Solubility in PBS pH7.4; for Solubility in the PBS solution (pH 7.4), in words: room temperature, PBS pH 7.4", "description": "Test Example 1. Solubility of the Compound of the Present Disclosure in PBS Solution (pH 7.4) at Room Temperature\n2.1 Formulation of the PBS solution (pH 7.4): 0.57 g of NaH2PO42.H2O, 5.55 g of Na2HPO4.12H2O and 6.48 g of NaCl were weighed, followed by the addition of ultra-pure water. The pH was adjusted to 7.4±0.05 with 1 M NaOH or 1 M HCl. Water was added until the volume reached 1 L. The PBS solution was stored in a refrigerator at 4° C. (the storage life was 6 months).\n2.2 Formulation of the solution of the compound in PBS 7.4: An appropriate amount of the test compound was weighed, and dissolved in DMSO or a mixed solution of DMSO:acetonitrile:ethanol (1:1:1) to obtain a 10 mM stock solution of the test compound. 10 μL of the stock solution of the test compound and 990 μL of the PBS solution (pH 7.4) were precisely measured and placed in a 2 mL sample vial and mixed well, and the DMSO concentration of the final solution was 1% (v/v). This solution was formulated in duplicate, shaken on a plate bed at room temperature for 24 hours, and centrifuged at 5000 rpm for 20 minutes. The supernatant was analyzed by the liquid chromatograph.\n2.3 Formulation of the reference solution: 10 μL of the stock solution of the test sample (concentration: 10 mM, dissolved in DMSO) and 990 μL of an organic mixed solvent (usually DMSO:acetonitrile:ethanol=1:1:1) were precisely measured and placed in a 2 mL sample vial, and mixed well to obtain a clear 100 μM sample solution. The solution was filtered through a 0.45 μm organic phase microporous filter membrane, and the filtrate was analyzed by the liquid chromatograph.\nSolubility (μM)=peak area of the sample/peak area of the reference*concentration of the reference (μM)*sample solution dilution factor\nThe average of two measurements was used as the final solubility."}}, "note": "Where a name gives a salt, the structure may show the parent alone."}
{"molecule": "Cc1cc(F)ccc1Oc1cc(C(F)(F)F)c(Cl)cc1C(=O)Nc1cnn(COC(=O)CCC(=O)O)c(=O)c1", "note": "[Example 2, 4-((4-(5-Chloro-2-(4-fluoro-2-methylphenoxy)-4-(trifluoromethyl)benzamido)-6-oxopyridazin-1(6H)-yl)methoxy)-4-oxobutanoic acid]", "values": [{"measurement": "Detection of the administered prodrug compound itself in rat plasma", "setting": "[1]", "result": "not detected"}, {"measurement": "In vivo conversion of the prodrug into its metabolite", "setting": "[1]", "result": "converted into compound 1h in vivo"}, {"measurement": "IC50", "setting": "NaV1.8 ion channel", "result": 37.6, "unit": "nM"}, {"measurement": "solubility at 24 h", "setting": "[2]", "result": 57.4, "unit": "µM"}]}
{"molecule": "[2H]C([2H])([2H])Oc1cc(F)ccc1Oc1cc(C(F)(F)F)c(Cl)cc1C(=O)Nc1cnn(COS(=O)(=O)O)c(=O)c1", "note": "[Example 12, (4-(5-Chloro-2-(4-fluoro-2-(methoxy-d3)phenoxy)-4-(trifluoromethyl)benzamido)-6-oxopyridazin-1(6H)-yl)methyl hydrogen sulfate]", "values": [{"measurement": "solubility at 24 h", "setting": "[2]", "result": 96.2, "unit": "µM"}]}
{"molecule": "COc1cc(F)ccc1Oc1cc(C(F)(F)F)c(Cl)cc1C(=O)Nc1cn[nH]c(=O)c1", "note": "[Compound 6c, 5-Chloro-2-(4-fluoro-2-methoxyphenoxy)-N-(6-oxo-1,6-dihydropyridazin-4-yl)-4-(trifluoromethyl)benzamide]", "values": [{"measurement": "solubility at 24 h", "setting": "[2]", "result": 0.44, "unit": "µM"}, {"measurement": "Solubility in the PBS solution (pH 7.4), in words", "setting": "[2]", "result": "poor"}]}
{"molecule": "[2H]C([2H])([2H])Oc1cc(F)ccc1Oc1cc(C(F)(F)F)c(Cl)cc1C(=O)Nc1cnn(COC(=O)CCC(=O)O)c(=O)c1", "note": "[Example 7, 4-((4-(5-Chloro-2-(4-fluoro-2-(methoxy-d3)phenoxy)-4-(trifluoromethyl)benzamido)-6-oxopyridazin-1(6H)-yl)methoxy)-4-oxobutanoic acid]", "values": [{"measurement": "Detection of the administered prodrug compound itself in rat plasma", "setting": "[1]", "result": "not detected"}, {"measurement": "In vivo conversion of the prodrug into its metabolite", "setting": "[1]", "result": "converted into compound 7d in vivo"}, {"measurement": "IC50", "setting": "NaV1.8 ion channel", "result": 14.5, "unit": "nM"}, {"measurement": "solubility at 24 h", "setting": "[2]", "result": 34.5, "unit": "µM"}]}
{"molecule": "Cc1cc(F)ccc1Oc1cc(C(F)(F)F)c(Cl)cc1C(=O)Nc1cnn(COC(=O)CC(=O)O)c(=O)c1", "note": "[Example 10, 3-((4-(5-Chloro-2-(4-fluoro-2-methylphenoxy)-4-(trifluoromethyl)benzamido)-6-oxopyridazin-1(6H)-yl)methoxy)-3-oxopropanoic acid]", "values": [{"measurement": "solubility at 24 h", "setting": "[2]", "result": 147, "unit": "µM"}]}
{"molecule": "[2H]C([2H])([2H])Oc1cc(F)ccc1Oc1cc(C(F)(F)F)c(Cl)cc1C(=O)Nc1cnn(COC(=O)/C=C/C(=O)O)c(=O)c1", "note": "[Example 13, (E)-4-((4-(5-Chloro-2-(4-fluoro-2-(methoxy-d3)phenoxy)-4-(trifluoromethyl)benzamido)-6-oxopyridazin-1(6H)-yl)methoxy)-4-oxobut-2-enoic acid]", "values": [{"measurement": "solubility at 24 h", "setting": "[2]", "result": 63.6, "unit": "µM"}]}
{"molecule": "[2H]C([2H])([2H])Oc1cc(F)ccc1Oc1cc(C(F)(F)F)c(Cl)cc1C(=O)Nc1cn[nH]c(=O)c1", "note": "[Compound 7d, 5-Chloro-2-(4-fluoro-2-(methoxy-d3)phenoxy)-N-(6-oxo-1,6-dihydropyridazin-4-yl)-4-(trifluoromethyl)benzamide]", "values": [{"measurement": "solubility at 24 h", "setting": "[2]", "result": 1.26, "unit": "µM"}, {"measurement": "Solubility in the PBS solution (pH 7.4), in words", "setting": "[2]", "result": "poor"}]}
{"molecule": "Cc1cc(F)ccc1Oc1cc(C(F)(F)F)c(Cl)cc1C(=O)Nc1cn[nH]c(=O)c1", "note": "[Compound 1h, 5-Chloro-2-(4-fluoro-2-methylphenoxy)-N-(6-oxo-1,6-dihydropyridazin-4-yl)-4-(trifluoromethyl)benzamide]", "values": [{"measurement": "solubility at 24 h", "setting": "[2]", "result": 0.5, "unit": "µM"}, {"measurement": "Solubility in the PBS solution (pH 7.4), in words", "setting": "[2]", "result": "poor"}]}
{"molecule": "Cc1cc(F)ccc1Oc1cc(C(F)(F)F)c(Cl)cc1C(=O)Nc1cnn(COS(=O)(=O)O)c(=O)c1", "note": "[Example 8, (4-(5-Chloro-2-(4-fluoro-2-methylphenoxy)-4-(trifluoromethyl)benzamido)-6-oxopyridazin-1(6H)-yl)methyl hydrogen sulfate]", "values": [{"measurement": "solubility at 24 h", "setting": "[2]", "result": 707, "unit": "µM"}]}
{"molecule": "Cc1cc(F)ccc1Oc1cc(C(F)(F)F)c(Cl)cc1C(=O)Nc1cnn(COC(=O)/C=C/C(=O)O)c(=O)c1", "note": "[Example 9, (E)-4-((4-(5-Chloro-2-(4-fluoro-2-methylphenoxy)-4-(trifluoromethyl)benzamido)-6-oxopyridazin-1(6H)-yl)methoxy)-4-oxobut-2-enoic acid]", "values": [{"measurement": "solubility at 24 h", "setting": "[2]", "result": 63.5, "unit": "µM"}]}
